Test results as given in US20080108645A1, “Dihydrotetrabenazines And Pharmaceutical Compositions Containing Them” (CAMBRIDGE LABORATORIES, (IRELAND), LTD., priority 2004, published 2008).
“Also recorded” adds a separate entry of the source.

Tests used:
[1] = tested on: Male Sprague-Dawley rats; assay: Spontaneous locomotor activity in rats (sedative properties); type: in vivo, rat
Description: A study was carried out in rats to determine whether the dihydrotetrabenazine isomers of the invention have sedative properties. The effects of the isomers on spontaneous locomotor activity in rats were compared with the effects produced by tetrabenazine and haloperidol using the methods set out below.
Male Sprague-Dawley rats, (Charles River Laboratories, Saint-Germain/L'Arbresle, France), weighing 200-250 g at the beginning of the study, were used for the studies. The rats were housed, 2 or 3 per cage, in Makrolon type III cages, in a room set up with the following environmental conditions: temperature: 20±2° C., humidity: minimum 45%, air changes: >12 per hour, light/dark cycle of 12 h/12 h [on at 7:00 a.m.]. The rats were allowed to acclimatize to their conditions for at least five days before commencement of the study. The rats received food (Dietex, Vigny, France, ref. 811002) and water (tap water in water bottle) ad libitum.
Solutions of each test compound in corn oil were freshly prepared on the day of the experiment. Haloperidol was prepared in hydroxyethylcellulose, 0.5% in deionized water. Either the vehicle or the test compounds were administered as a single dose (0.3, 1, 3 and 10 mg/kg, 2 mL/kg i.p.). The reference compound haloperidol (1 mg/kg) was administered i.p. (2 mL/kg).
The animals were placed in plexiglass cages under a video camera in a room with low light intensity (maximum 50 lux). At forty five minutes and 3 hours after administration, locomotor activity was determined during 20 minute periods using a video image analyzer (Videotrack, View Point, France). Locomotor activity was recorded in the reference group (haloperidol) at 1 hour after administration. The number and duration of ambulatory movements and duration of inactivity was measured. At the end of the locomotor activity measurement (45 minutes and 3 hours), palpebral closure and arousal were be scored as follows in the plexiglass cage:
The number of occurrences and duration (in seconds) of ambulatory (large) movements and the duration of periods of inactivity (seconds) was determined during two 20 minute periods (45 minutes and 3 hours after administration) using a video image analyzer (Videotrack, ViewPoint, Lyon, France). Image tracking was performed using a video camera placed above the plexiglass cage, recording overall locomotor activity. Images recorded with the video camera were digitalized and displacement of the centre of gravity of the digital image spots was tracked and analyzed using the following method: the speed of displacement of the centre of gravity of the spot was measured and two threshold values were set to define the type of movement: threshold 1 (high speed) and threshold 2 (low speed). When the animal moved and the speed of displacement of the centre of gravity of the spot was above threshold 1, the movement was considered as an ambulatory movement.
The results were expressed as the means±SEMs of the 12 individual values. Statistical analyses were carried out using ANOVA (one way) and Dunnett's t-test and with the non parametric test of Kruskal-Wallis followed by a Mann & Whitney U-test for the sedation cotation. A p value of p<0.05 was taken as indicating significance.

[2] = molecular target: VMAT2 (Homo sapiens, UniProt Q05940); conditions: Erickson et al. (1996); cited from earlier work
VMAT2, sequence (Q05940 whole entry): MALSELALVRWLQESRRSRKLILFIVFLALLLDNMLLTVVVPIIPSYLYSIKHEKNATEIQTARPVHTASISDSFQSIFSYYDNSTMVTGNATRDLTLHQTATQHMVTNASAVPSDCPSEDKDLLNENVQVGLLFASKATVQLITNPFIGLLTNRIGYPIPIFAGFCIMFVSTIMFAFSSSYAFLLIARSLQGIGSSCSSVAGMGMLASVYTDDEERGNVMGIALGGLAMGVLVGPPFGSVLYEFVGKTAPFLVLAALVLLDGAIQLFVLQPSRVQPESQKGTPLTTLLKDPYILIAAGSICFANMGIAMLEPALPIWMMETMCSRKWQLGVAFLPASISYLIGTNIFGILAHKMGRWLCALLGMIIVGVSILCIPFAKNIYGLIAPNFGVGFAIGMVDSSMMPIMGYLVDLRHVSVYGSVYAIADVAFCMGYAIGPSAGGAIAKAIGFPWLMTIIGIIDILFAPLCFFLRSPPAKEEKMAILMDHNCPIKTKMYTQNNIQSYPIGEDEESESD

[3] = 0.3 mg/kg i.p., 45 minutes after administration
[4] = 0.3 mg/kg i.p., 3 hours after administration
[5] = 1 mg/kg i.p., 45 minutes after administration
[6] = 1 mg/kg i.p., 3 hours after administration
[7] = 3 mg/kg i.p., 45 minutes after administration
[8] = 3 mg/kg i.p., 3 hours after administration
[9] = 10 mg/kg i.p., 45 minutes after administration
[10] = 10 mg/kg i.p., 3 hours after administration

COc1cc2c(cc1OC)C1CC(=O)C(CC(C)C)CN1CC2 (racemic) [Tetrabenazine, 1,3,4,6,7,11b-hexahydro-9,10-dimethoxy-3-(2-methylpropyl)-2H-benzo(a)quinolizin-2-one]
Inactivity Duration [1, 3]: 390.4 ± 37.4 s
Large movements Duration [1, 3]: 66.8 ± 10.7 s
Large movements Occurrence [1, 3]: 253 ± 32
Inactivity Duration [1, 4]: 545.9 ± 37.1 s
Large movements Duration [1, 4]: 24.3 ± 4.2 s
Large movements Occurrence [1, 4]: 96 ± 14
Inactivity Duration [1, 5]: 456.5 ± 50.5 s
Large movements Duration [1, 5]: 46.5 ± 8.6 s
Large movements Occurrence [1, 5]: 189 ± 32
Inactivity Duration [1, 6]: 556.9 ± 31.1 s
Large movements Duration [1, 6]: 21.5 ± 4.0 s
Large movements Occurrence [1, 6]: 90 ± 16
Inactivity Duration [1, 7]: 697.8 ± 39.7 s
Large movements Duration [1, 7]: 8.7 ± 5.9 s
Large movements Occurrence [1, 7]: 38 ± 25
Inactivity Duration [1, 8]: 729.9 ± 26.8 s
Large movements Duration [1, 8]: 1.7 ± 0.9 s
Large movements Occurrence [1, 8]: 9 ± 4
Inactivity Duration [1, 9]: 723.1 ± 46.5 s
Large movements Duration [1, 9]: 0.2 ± 0.2 s
Large movements Occurrence [1, 9]: 1 ± 1
Inactivity Duration [1, 10]: 762.1 ± 40.7 s
Large movements Duration [1, 10]: 0.6 ± 0.3 s
Large movements Occurrence [1, 10]: 3 ± 1
sedative effect (in words) ([1]; 0.3-10 mg/kg i.p., 45 minutes and 3 hours after administration): dose-dependent sedative effect; also recorded: dose related sedative effect
affinity for VMAT2 in comparison to VMAT1 [2]: ≥ 200 fold
